# From patent publication US8404866B2, “Substituted heterocyclic mercaptosulfonamide metalloprotease inhibitors” (Florida State University Research Foundation, priority 2008, dated 2013)
# Counter-ions that a name gives are not always drawn.
# Legend:
# Type in all cases: biochemical
# [1] = target: T1, MMP-2 (HFG; human fibroblast gelatinase) (Homo sapiens, UniProt P08253); assay: Enzyme kinetic assay, inhibition of MMP-2; settings: read-out: Ki (value in parentheses), HFG MMP-2
# T1 sequence (P08253 110-660): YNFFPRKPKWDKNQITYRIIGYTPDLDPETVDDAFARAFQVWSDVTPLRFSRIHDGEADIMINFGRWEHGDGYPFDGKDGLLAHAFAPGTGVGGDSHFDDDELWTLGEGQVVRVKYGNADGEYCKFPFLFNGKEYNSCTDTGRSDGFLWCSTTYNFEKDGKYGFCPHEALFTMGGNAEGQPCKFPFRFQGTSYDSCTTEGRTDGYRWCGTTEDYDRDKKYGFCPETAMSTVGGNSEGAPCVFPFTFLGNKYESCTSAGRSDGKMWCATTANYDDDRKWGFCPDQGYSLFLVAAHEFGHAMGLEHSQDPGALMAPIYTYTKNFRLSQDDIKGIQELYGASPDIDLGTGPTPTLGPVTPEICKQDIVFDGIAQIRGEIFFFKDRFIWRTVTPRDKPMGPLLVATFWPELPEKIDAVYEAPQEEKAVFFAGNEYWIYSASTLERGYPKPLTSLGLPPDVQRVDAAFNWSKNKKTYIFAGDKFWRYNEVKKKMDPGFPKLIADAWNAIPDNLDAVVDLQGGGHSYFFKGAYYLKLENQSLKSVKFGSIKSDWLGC
# From the text: (§1) The following protocol was used to obtain the data found in the following table. Materials: The fluorescent peptide substrates for matrix metalloproteinases (MMPs) used were purchased from Bachem Chem. Co. The metal salts and Brij-35 were purchased from Fisher Scientific Inc. All other chemicals were purchased from Sigma-Aldrich Chem. Co. The sources and biochemical characterizations of multiple MMPs, including MMP-1/human fibroblast collagenase (HFC), MMP-2/human fibroblast gelatinase (HFG), MMP-8/human neutrophil collagenase (HNC), and MMP-9/human neutrophil gelatinase (HNG), MMP-7/human matrilysin (MLN), MMP-3/human fibroblast stromelysin-1 (HFS), human recombinant catalytic domain of membrane-type 1 matrix metalloproteinase (cdMT1-MMP), catalytic domain of MMP-12/metalloelastase (cdMET), and MMP-26/human endometase (EDM) were described previously (Sang, Q. X., Birkedal-Hansen, H., and Van Wart, H. E. Proteolytic and non-proteolytic activation of human neutrophil progelatinase B. Biochim. Biophys. Acta. 1995; 1251, 99-108; Sang, Q. A., Bodden, M. K., and Windsor, L. J. Activation of human progelatinase A by collagenase and matrilysin: activation of procollagenase by matrilysin. J. Protein. Chem. 1996; 15, 243-253; Li, H., Bauzon, D. E., Xu, X., Tschesche, H., Cao, J., and Sang, Q.-X. A. Immunological characterization of cell-surface and soluble forms of membrane type 1 matrix metalloproteinase in human breast cancer cells and in fibroblasts. Molec. Carcinog. 1998; 22, 84-94; Park, H. I., Ni, J., Gerkema, F. E., Liu, D., Belozerov, V. E., and Sang, Q.-X. A. Identification and characterization of human endometase (Matrix metalloproteinase-26) from endometrial tumor. J. Biol. Chem., 2000; 275, 20540-20544). The active concentrations of MMPs were determined by titration with GM6001, a tight-binding MMP inhibitor, as described previously (Park, H. I., Turk, B. E., Gerkema, F. E., Cantley, L. C., and Sang, Q.-X. A. Peptide substrate specificities and protein cleavage sites of human endometase/matrilysin-2/matrix metalloproteinase-26. J. Biol. Chem. 2002; 277, 35168-35175).
# (§2) The active inhibitor concentrations were estimated by titrating the mercapto group with 5,5′-dithiobis(2-nitrobenzoic acid) (DTNB; Ellman's reagent) as described previously (Ellman, G. L. A colorimetric method for determining low concentrations of mercaptans. Arch. Biochem. Biophys. 1958; 74, 443-450; Ellman, G. L. Tissue sulfhydryl groups. Arch. Biochem. Biophys. 1959; 82, 70-77; Riddles, P. W., Blakeley, R. L., and Zerner, B. Ellman's reagent: 5,5′-dithiobis(2-nitrobenzoic acid)—a reexamination. Anal. Biochem. 1979; 94, 75-81). Briefly, the reaction of DTNB with the mercapto group produces 2-nitro-5-thiobenzoic acid (TNB). The concentration of TNB is then measured by monitoring the absorbance at 412 nm. Cysteine was used to generate the standard curve with a molar extinction coefficient of 14,000±500 M^−1 cm^−1, which is close to the value in the literature (Riddles, P. W., Blakeley, R. L., and Zerner, B. Ellman's reagent: 5,5′-dithiobis(2-nitrobenzoic acid)—a reexamination. Anal. Biochem. 1979; 94, 75-81).
# (§3) The substrate Mca-PLGLDpaAR-NH2 was used to measure inhibition constants (Knight, C. G., Willenbrock. F., and Murphy, G. A novel coumarin-labelled peptide for sensitive continuous assays of the matrix metalloproteinases. FEBS Lett. 1992; 296, 263-266). Enzymatic assays were performed at 25° C. in 50 mM HEPES buffer at pH 7.5 in the presence of 10 mM CaCl2, 0.2 M NaCl, and 0.01% or 0.05% Brij-35 with substrate concentrations of 1 μM. The release of product was monitored by measuring fluorescence (excitation and emission wavelengths of 328 nm and 393 nm, respectively) with a Perkin Elmer Luminescence Spectrophotometer LS 50B connected to a temperature controlled water bath. All stock solutions of inhibitors were in dimethyl sulfoxide. […]
# MMP-13 (COL-3) = MMP-13 (COL-3) (Homo sapiens, UniProt P45452); assay: Enzyme kinetic assay, inhibition of MMP-13; settings: read-out: Ki (value in parentheses), COL-3 MMP-13
# From the text: as §1, §2, §3
# [2] = target: T2, MMP-7 (MLN; human matrilysin) (Homo sapiens, UniProt P09237); assay: Enzyme kinetic assay, inhibition of MMP-7; settings: for IC50: 25° C., pH 7.5, substrate 1 μM, read-out: IC50 (value without parentheses), MLN MMP-7; for Ki: read-out: Ki (value in parentheses), MLN MMP-7
# T2 sequence (P09237 95-267): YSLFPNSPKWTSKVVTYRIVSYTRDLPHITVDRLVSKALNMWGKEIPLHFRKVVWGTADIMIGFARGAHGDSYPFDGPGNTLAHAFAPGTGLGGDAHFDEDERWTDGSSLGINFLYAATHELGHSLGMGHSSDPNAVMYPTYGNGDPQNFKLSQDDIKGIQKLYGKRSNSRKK
# From the text: as §1, §2, §3
SMILES,Ki [1] [nM],Ki (MMP-13 (COL-3)) [nM],IC50 [2] [nM],Ki [2] [nM]
"NC(=O)N1C[C@H](NS(=O)(=O)c2ccc(Oc3ccccc3)cc2)[C@@H](S)C1 (racemic) [Example 1, (±)-N-Carbamoyl-trans-3-(4-phenoxybenzenesulfonamido)-4-mercaptopyrrolidine]",3.9,50,> 25000,–
"O=C(NCCN1C(=O)c2ccccc2C1=O)N1C[C@H](NS(=O)(=O)c2ccc(Oc3ccccc3)cc2)[C@@H](S)C1 (racemic) [Example 2, (±)-N-(2-Phthalimidoethylaminocarbonyl)-trans-3-(4-phenoxybenzenesulfonamido)-4-mercaptopyrrolidine]",35,27,> 12500,–
"O=S(=O)(N[C@H]1CNC[C@@H]1S)c1ccc(Oc2ccccc2)cc1 (racemic) [Example 3, (±)-trans-3-(4-Phenoxybenzenesulfonamido)-4-mercaptopyrrolidine Hydrochloride]",27,35,> 25000,–
"CN([C@H]1CN(C(N)=O)C[C@@H]1S)S(=O)(=O)c1ccc(Oc2ccccc2)cc1 (racemic) [Example 4, (±)-N-Carbamoyl-trans-3-(N-methyl-4-phenoxybenzenesulfonamido)-4-mercaptopyrrolidine]",2.3,28,> 25000,–
"O=C(OCc1ccccc1)N1C[C@H](NS(=O)(=O)c2ccc(Oc3ccccc3)cc2)[C@@H](S)C1 (racemic) [Example 5, (±)-N-(Benzyloxycarbonyl)-trans-3-(4-phenoxybenzenesulfonamido)-4-mercaptopyrrolidine]",24,450,> 50000,–
"O=C(OCc1ccccc1)N1C[C@H](NS(=O)(=O)c2ccc(-c3ccccc3)cc2)[C@@H](S)C1 (racemic) [Example 6, (±)-N-(Benzyloxycarbonyl)-trans-3-(4-phenylbenzenesulfonamido)-4-mercaptopyrrolidine]",78,100,> 12500,–
"NCCCCCC(=O)N1C[C@H](NS(=O)(=O)c2ccc(Oc3ccccc3)cc2)[C@@H](S)C1 (racemic) [Example 7, (±)-N-(6-Aminohexanoyl)-trans-3-(4-phenoxybenzene-sulfonamido)-4-mercaptopyrrolidine Hydrochloride]",2.2,2,–,4000
"CC(=O)NCCCCCC(=O)N1C[C@H](NS(=O)(=O)c2ccc(Oc3ccccc3)cc2)[C@@H](S)C1 (racemic) [Example 8, (±)-N-(6-Acetamidohexanoyl)-trans-3-(4-phenoxy-benzenesulfonamido)-4-mercaptopyrrolidine]",3.8,1.7,–,3000
"CC(=O)NCCCCCC(=O)N1C[C@H](NS(=O)(=O)c2ccc(-c3ccccc3)cc2)[C@@H](S)C1 (racemic) [Example 9, (±)-N-(6-Acetamidohexanoyl)-trans-3-(4-phenylbenzene-sulfonamido)-4-mercaptopyrrolidine]",63,47,–,2000
